IC50 data for 50 compounds are collected here from patent US11780845B2 (Relay Therapeutics, Inc., priority 2019, dated 2023).

One assay concerns the target FGFR2 (Homo sapiens (Human), UniProt P21802). As to the kind of experiment: Biochemical FGFR2 Caliper assay.
Another assay concerns SNU-16. As to the kind of experiment: Cell SNU-16 assay. Type of assay: cell-based.
Setting [1] is: Homo sapiens, SNU-16, SNU-16 cells.

Some results are limits rather than exact numbers.

FGFR2, sequence (P21802 22-821): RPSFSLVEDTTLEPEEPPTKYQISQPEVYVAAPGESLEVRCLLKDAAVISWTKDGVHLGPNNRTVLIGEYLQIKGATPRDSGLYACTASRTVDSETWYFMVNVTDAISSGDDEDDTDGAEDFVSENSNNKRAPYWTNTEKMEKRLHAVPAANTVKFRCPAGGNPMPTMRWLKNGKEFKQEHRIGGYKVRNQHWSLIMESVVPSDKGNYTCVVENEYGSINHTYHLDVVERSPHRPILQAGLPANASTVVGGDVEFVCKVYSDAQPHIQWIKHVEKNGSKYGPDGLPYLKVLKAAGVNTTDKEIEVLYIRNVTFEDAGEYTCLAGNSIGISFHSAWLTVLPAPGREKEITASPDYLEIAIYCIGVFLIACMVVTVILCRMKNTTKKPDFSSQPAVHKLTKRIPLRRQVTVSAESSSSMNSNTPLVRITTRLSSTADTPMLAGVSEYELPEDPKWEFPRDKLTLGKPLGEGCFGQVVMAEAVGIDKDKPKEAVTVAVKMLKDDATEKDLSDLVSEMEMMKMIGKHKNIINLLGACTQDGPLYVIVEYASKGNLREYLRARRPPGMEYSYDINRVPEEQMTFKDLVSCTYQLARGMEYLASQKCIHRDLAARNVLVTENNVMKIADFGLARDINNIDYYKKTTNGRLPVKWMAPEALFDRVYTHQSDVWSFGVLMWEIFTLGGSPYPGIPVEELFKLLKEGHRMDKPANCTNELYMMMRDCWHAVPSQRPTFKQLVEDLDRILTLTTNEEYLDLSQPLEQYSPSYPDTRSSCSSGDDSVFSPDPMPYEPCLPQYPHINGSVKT

On to `C=C(C)C(=O)N1CC=C(c2c(-c3ccc(Oc4cccc(C)n4)cc3)c3c(N)ncnc3n2C)[C@H]1C` (single isomer, unassigned) [Example 930], for which the values for the half-inhibitory concentration (IC50) on FGFR2 and with SNU-16 (setting [1]) were 250 to 1000 nM and 100 to 250 nM, respectively.
The matching figures for `C=C(C)C(=O)Nc1ccc(-c2[nH]c3cncnc3c2-c2ccc(Oc3cccc(C)n3)cc2)cc1` [Example 831]: less than 100 nM and 100 to 250 nM.
For the compound `C=C(C)C(=O)Nc1ccc(-c2c(-c3ccc(NC(=O)OCC)nc3)c3c(N)ncnc3n2C)cc1` [Example 1303], the IC50 on FGFR2 and in the assay with SNU-16 (setting [1]) was 1000 to 100000 nM in each case.
Take `C=C(C)C(=O)Nc1ccc(-c2c(-c3ccc(C(=O)c4cccc(C)n4)cc3)c3c(N)ncnn3c2COC)cc1` [Example 853]: the half-inhibitory concentration (IC50) on FGFR2 was 250 to 1000 nM; in the assay on SNU-16 (setting [1]), 100 to 250 nM.
The matching figures for `C=C(C)C(=O)Nc1ccc(-c2c(-c3ccc4c(c3)CO[C@H]4c3cccc(C)n3)c3c(N)ncnc3n2C)cc1` (single isomer, unassigned) [Example 896]: 100 to 250 nM and 250 to 1000 nM.
In the same order, the values of `C=CC(=O)N1CC(c2c(-c3ccc(Oc4cccc(C)n4)cc3)c3c(N)ncnc3n2C)C[C@H]1C` (stereo partly shown) [Example 847] are 250 to 1000 nM and 250 to 1000 nM.
As for `C#Cc1cnc2ccc(-c3c(-c4ccc(Oc5nccc(C)n5)c(F)c4)c4c(N)ncnc4n3C)cc2n1` [Example 1384], the IC50 against FGFR2 was less than 100 nM; in the assay on SNU-16 (setting [1]) it was 100 to 250 nM.
Consider `C#Cc1nc2cc(-c3c(C4=CC[C@@H](C(=O)N5CCC[C@H]5COC)CC4)c4c(N)ncnc4n3C)ccc2[nH]1` [Example 1320], for which the IC50 against FGFR2 was less than 100 nM; in the assay on SNU-16 (setting [1]), 250 to 1000 nM.
For `C=CC(=O)N1CCC(c2c(-c3ccc(N4CCN(C)C4=O)cc3)c3c(N)ncnc3n2C)C1` (stereo not shown) [Example 805], the IC50 at FGFR2 lay in the range of 1000 to 100000 nM; in the assay with SNU-16 (setting [1]), 250 to 1000 nM.
For `C=CC(=O)N1CCC(c2c(-c3ccc(N4CCCC4=O)nc3)c3c(N)ncnc3n2C)C1` (stereo not shown) [Example 798], the figures for the concentration for half-maximal inhibition (IC50) against FGFR2 and in the assay on SNU-16 (setting [1]) were 250 to 1000 nM and 1000 to 100000 nM, respectively.
In the same order, the values of `C=C(C)C(=O)Nc1ccc(-c2c(C3=CC[C@H](C(=O)N4CCCC4)CC3)c3c(N)ncnc3n2C)c(OC)c1` [Example 1480] are 1000 to 100000 nM and 250 to 1000 nM.
For `Cn1c(C2CCN(C#N)C2)c(-c2ccc(C(=O)N3CCCC3)cc2)c2c(N)ncnc21` (stereo not shown) [Example 858], the concentration for half-maximal inhibition (IC50) was less than 100 nM on FGFR2 and no more than 100 nM in the assay on SNU-16 (setting [1]).
Take `C=C1CCN(c2ccc(-c3c(-c4ccc(Oc5nccc(C)n5)cc4)c4c(N)ncnc4n3C)c(C)c2)C1=O` [Example 1096]: the figures for the IC50 against FGFR2 and with SNU-16 (setting [1]) were less than 100 nM and no more than 100 nM, respectively.
On to `C#Cc1cc(C)c(-c2c(-c3ccc(Oc4nccc(C)n4)c(F)c3)c3c(Cl)ncnc3n2C)c(F)n1` [Example 1401], for which the figures for the half-inhibitory concentration (IC50) against FGFR2 and with SNU-16 (setting [1]) were less than 100 nM and no more than 100 nM, respectively.
In the same order, the values of `C=CC(=O)N1CCC(n2cc(-c3c(-c4ccc(C(=O)N(C)Cc5nc(C)no5)cc4)c4c(N)ncnc4n3C)cn2)CC1` [Example 849] are 100 to 250 nM and 250 to 1000 nM.
Turning to `C=Cc1nc2ccc(-c3c(-c4ccc(Oc5nccc(C)n5)cc4)c4c(N)ncnc4n3C)cc2[nH]1` [Example 1048], the IC50 lay in the range of 250 to 1000 nM against FGFR2 and 100 to 250 nM in the assay with SNU-16 (setting [1]).
The matching figures for `C=C(C)C(=O)Nc1ccc(-c2c(C3=CC[C@H](C(=O)N4CCCC4)C[C@@H]3C)c3c(N)ncnc3n2C)cc1` (single isomer, unassigned) [Example 939]: 1000 to 100000 nM and 1000 to 100000 nM.
In the same order, the values of `C=C(C)C(=O)Nc1ccc(-c2c(C3=CC[C@H](C(=O)N4CCCC45COC5)CC3)c3c(N)ncnc3n2C)c(C)c1` (single isomer, unassigned) [Example 1029] are 1000 to 100000 nM and 250 to 1000 nM.
As to `C=C(C)C(=O)Nc1ccc(-c2c(-c3ccc4c(c3)COCC4)c3c(N)ncnc3n2C)cc1` [Example 1289], the IC50 against FGFR2 and in the assay with SNU-16 (setting [1]) was 1000 to 100000 nM in each case.
As for `C=CC(=O)N[C@H]1C[C@@H]1c1c(-c2ccc(C(=O)N3CCCC3)cc2)c2c(N)ncnc2n1C` (single isomer, unassigned) [Example 972], the IC50 on FGFR2 and with SNU-16 (setting [1]) was 1000 to 100000 nM each time.
In the case of `C=Cc1ccc(-c2c(-c3ccc4nn[nH]c4c3)c3c(N)ncnc3n2C)cn1` [Example 1352], the concentration for half-maximal inhibition (IC50) on FGFR2 was less than 100 nM; in the assay on SNU-16 (setting [1]), no more than 100 nM.
Consider `C#Cc1ncc(-c2c(-c3ccc(C(=O)N(C)CC(C)C)cc3)c3c(N)ncnc3n2C)c(C)c1F` [Example 1305], for which the half-inhibitory concentration (IC50) at FGFR2 was less than 100 nM; in the assay with SNU-16 (setting [1]), no more than 100 nM.
Turning to `C=CC(=O)Nc1ccc(-c2c(-c3ccc(=O)[nH]c3)c3c(N)ncnc3n2C)cc1` [Example 1158], the values for the IC50 against FGFR2 and in the assay with SNU-16 (setting [1]) were less than 100 nM and no more than 100 nM, respectively.
The matching figures for `C=C(C)C(=O)Nc1ccc(-c2c(C3=CC[C@H](C(=O)N4CCC[C@@H]4C4CC4)CC3)c3c(N)ncnc3n2C)cc1` [Example 1058]: 1000 to 100000 nM and 1000 to 100000 nM.
The matching figures for `COC(=O)Nc1ccc(-c2c(-c3ccc(C(=O)N4CCCC4)cc3)c3c(N)ncnc3n2C)cc1` [Example 902]: 1000 to 100000 nM and 1000 to 100000 nM.
As for `C#Cc1cc(C)c(-c2c(-c3ccc(Oc4cccc(C)n4)c(F)c3)c3c(N)ncnc3n2C)cn1` [Example 1203], the IC50 was less than 100 nM on FGFR2 and no more than 100 nM in the assay on SNU-16 (setting [1]).
The matching figures for `C=C(C)C(=O)Nc1ccc(-c2c(C3=CC[C@@H](C(=O)N4CCC[C@@H]4C)CC3)c3c(N)ncnc3n2C)cc1` [Example 1003]: 250 to 1000 nM and 100 to 250 nM.
Regarding `C#Cc1cc(C)c(-c2c(-c3ccc(Oc4nccc(C)n4)c(F)c3)c3c(C)ncnc3n2C)c(F)n1` [Example 1400], the IC50 on FGFR2 was less than 100 nM; with SNU-16 (setting [1]) it was no more than 100 nM.
The matching figures for `C=CC(=O)N1C2COCC1C(c1c(-c3ccc(Oc4cccc(C)n4)cc3)c3c(N)ncnc3n1C)C2` (stereo not shown) [Example 812]: less than 100 nM and no more than 100 nM.
In the case of `C=CC(=O)N1CC=C(c2cccc(-c3c(-c4ccc(Oc5cccc(C)n5)cc4)c4c(N)ncnc4n3C)c2)C1` [Example 1080], the 50% inhibitory concentration (IC50) against FGFR2 and in the assay on SNU-16 (setting [1]) was 1000 to 100000 nM in each case.
For the compound `C#Cc1cc(OC)c(-c2c(-c3ncc(Oc4nccc(C)n4)cc3F)c3c(N)ncnc3n2C)cn1` [Example 1452], the values for the half-inhibitory concentration (IC50) against FGFR2 and with SNU-16 (setting [1]) were less than 100 nM and no more than 100 nM, respectively.
In the same order, the values of `C=CC(=O)Nc1cccc(-c2c(C3=CC[C@H](C(=O)N4CCCC4)CC3)c3c(N)ncnc3n2C)c1` [Example 1018] are less than 100 nM and no more than 100 nM.
As for `C=C(C)C(=O)Nc1ccc(-c2c(-c3ccc(C(=O)N[C@H]4C[C@@H](F)C4)c(COC)c3)c3c(N)ncnc3n2C)cc1` [Example 967], the IC50 against FGFR2 and with SNU-16 (setting [1]) was 1000 to 100000 nM in each case.
For the compound `C=C(C)C(=O)Nc1ccc(-c2c(-c3ccc4ncnn4c3)c3c(N)ncnc3n2C)cc1` [Example 1343], the IC50 against FGFR2 and in the assay with SNU-16 (setting [1]) was 1000 to 100000 nM each time.
In the case of `C=C1C(=O)N(c2ccc(-c3c(-c4ccc(Oc5nccc(C)n5)cc4)c4c(N)ncnc4n3C)cc2)C[C@@H]1C` [Example 1133], the IC50 against FGFR2 and in the assay on SNU-16 (setting [1]) was 100 to 250 nM each time.
With `C#Cc1cc(C)c(-c2c(C3=CC[C@H](C(=O)N4CCC[C@@H]4C)CC3)c3c(N)ncnc3n2C)cn1` [Example 1257], the IC50 at FGFR2 and in the assay on SNU-16 (setting [1]) was 250 to 1000 nM each time.
Turning to `C=C(C)C(=O)Nc1ccc(-c2c(C3=CC[C@]4(CC3)Cc3ccccc3C4=O)c3c(N)ncnc3n2C)cc1` (single isomer, unassigned) [Example 988], the IC50 on FGFR2 was 250 to 1000 nM; in the assay on SNU-16 (setting [1]), no more than 100 nM.
In the same order, the values of `C=C(C)C(=O)Nc1ccc(-c2c(-c3cnc(-c4cccc(F)c4)s3)c3c(N)ncnc3n2C)cc1` [Example 1421] are 250 to 1000 nM and 250 to 1000 nM.
On to `C=CC(=O)Nc1ccc(-c2c(-c3ccc(Oc4nccc(C)n4)c(F)c3)c3c(N)ncnc3n2C)cc1` [Example 1112], for which the IC50 on FGFR2 is less than 100 nM; in the assay on SNU-16 (setting [1]) it was no more than 100 nM.
In the case of `Cn1c(-c2ccc(NC(=O)CC#N)cc2)c(-c2ccc(C(=O)N3CCCC3)cc2)c2c(N)ncnc21` [Example 881], the IC50 at FGFR2 and in the assay with SNU-16 (setting [1]) was 1000 to 100000 nM throughout.
Take `C#Cc1cc2c(cn1)-c1c(-c3ccc(Oc4nccc(C)n4)cc3)c3c(N)ncnc3n1CCC2` [Example 1391]: the IC50 on FGFR2 was less than 100 nM; with SNU-16 (setting [1]), no more than 100 nM.
Turning to `C#Cc1cc(C)c(-c2c(-c3ccc(Oc4nccc(C)n4)c(F)c3)c3c(Cl)ncnc3n2C)c(F)n1` [Example 1417], the concentration for half-maximal inhibition (IC50) against FGFR2 is less than 100 nM; in the assay with SNU-16 (SNU-16 cells), no more than 100 nM.
Regarding `C=C(C)C(=O)Nc1ccc(-c2c(-c3ccc(Oc4nccc(C)n4)c(F)c3)c3c(C)ncnc3n2C)c(Cl)c1` [Example 1093], the IC50 against FGFR2 is less than 100 nM; in the assay with SNU-16 (setting [1]), no more than 100 nM.
In the same order, the values of `C#Cc1cc(C)c(-c2c(-c3ccc(Oc4nccc(C)n4)c(F)c3)c3c(Cl)ncnc3n2C)cn1` [Example 1356] are less than 100 nM and no more than 100 nM.
For the compound `C#Cc1cc(OC)c(-c2c(-c3ccc(Oc4nccc(C)n4)c(F)c3)c3c(Cl)ncnc3n2C)cn1` [Example 1403], the concentration for half-maximal inhibition (IC50) was less than 100 nM at FGFR2 and no more than 100 nM in the assay with SNU-16 (setting [1]).
For the compound `C=C(C)C(=O)Nc1ccc(-c2nn3ccnc(N)c3c2C2=CCC(C(=O)N3CCCC3)CC2)cc1` (stereo not shown) [Example 868], the IC50 against FGFR2 and with SNU-16 (setting [1]) was 1000 to 100000 nM each time.
As for `C=C(C)C(=O)Nc1ccc(-c2c(-c3ccc(C(=O)N4CCCCC4)cc3)c3c(N)ncnn3c2CO)cc1` [Example 846], the IC50 is less than 100 nM on FGFR2 and 1000 to 100000 nM in the assay on SNU-16 (setting [1]).
The matching figures for `C=C(C)C(=O)N[C@H]1C[C@H](c2c(-c3ccc(C(=O)N4CCCC4)cc3)c3c(N)ncnc3n2C)C1` [Example 880]: 1000 to 100000 nM and 1000 to 100000 nM.
In the same order, the values of `C=C(C)C(=O)Nc1cccc(-c2[nH]c3ncnc(N)c3c2-c2ccc(C(=O)NCC3(F)COC3)cc2)c1` [Example 1079] are less than 100 nM and no more than 100 nM.
The matching figures for `C=C(C)C(=O)Nc1ccc(-c2nn3ccnc(N)c3c2C2=CC[C@@H](C(=O)N3CCCC3)CC2)cc1` (single isomer, unassigned) [Example 867]: less than 100 nM and no more than 100 nM.

Usually IC50 stands for the concentration that gives 50% inhibition.
